How the values were obtained:
[1] = tested on: GM-CSFR/JAK2/STAT5 pathway; test: CSTF-1 cell-based reporter assay; details: Homo sapiens; csTF-1 cells, GM-CSF at 2 ng/mL, 4 hours, beta-lactamase reporter; read-out: Cell Assay: CS TF-1 reporter assay IC50
Method: CSTF-1 Cell-Based Reporter Assay
CSTF-1 cells are derived from the human erythroleukemia cell line that is growth dependent on GM-CSF and has an intact GM-CSFR/JAK2/STAT5 pathway. The cell line contains stably integrated beta-lactamase reporter gene under the control of the […] (irf 1) response element recognized by the activated transcription factor STAT5. csTF-1 cells (Invitrogen K1219) were washed with assay media (97% OPTIMEM/0.5% dialyzed FBS/0.1 mM NEAA/1 mM Na pyr/P/S) and seeded in the same media at 5×10^5 cell/mL in T150 flask. After 16 hour incubation, cells were seeded at 2×10^5 cell/well in 50 μl volume, into Costar, clear bottom, 96-well assay plates. Serial dilutions of compounds were added to the plates with final DMSO concentration at 0.5% and GM-CSF at 2 ng/mL and the plates were then incubated at 30° C. and 5% CO2 for 4 hours. The plates were brought to room temperature before adding Substrate Mixture according to manufacturer's protocol (Invitrogen, Catalog #K1085). The assay plates containing the substrate mixture were incubated in the dark at room temperature for 2 hours. Blue and green fluorescence was measured with excitation at 409 nm and emission at 460 nm (for blue) and excitation at 409 nm and emission at 530 nm (for green) using Spectra Max Gemini EM.

JAK2 = molecular target: T1, JAK2 (Homo sapiens, UniProt O60674); test: Competition binding assay to determine binding constants (Kd), JAK2
T1 construct: made in house; host or cells: T7 phage display or HEK-293 cells (alternatives)
From the text: (§1) Competition Binding Assay to Determine Binding Constants (Kd) of the Compounds Against JAK Kinases
(§2) Competition binding assays used herein were developed, validated and performed as described in Fabian et al., Nature Biotechnology 2005, 23, 329-336. Kinases were produced as fusions to T7 phage (See, Fabian et al. or WO04/015142) or alternatively, the kinases were expressed in HEK-293 cells and subsequently tagged with DNA for PCR detection (See, WO08/005,310). For the binding assays, streptavidin-coated magnetic beads were treated with biotinylated affinity ligands for 30 min at rt to generate affinity resins. The liganded beads were blocked with excess biotin and washed with blocking buffer (SeaBlock (Pierce), 1% BSA, 0.05% Tween 20, 1 mM DTT) to remove unbound ligand and to reduce non-specific binding. Binding reactions were assembled by combining kinase, liganded affinity beads, and test compounds in 1× binding buffer (20% SeaBlock, 0.17×PBS, 0.05% Tween 20, 6 mM DTT). Test compounds were prepared as 100× stocks in DMSO and rapidly diluted into the aqueous environment. DMSO was added to control assays lacking a test compound. Primary screen interactions were performed in polypropylene 384-well plates in a final volume of 34 μL, while Kd determinations were performed in polystyrene 96-well plates in a final volume of 135 μL. The assay plates were incubated at room temperature with shaking for 1 hour, long enough for binding reactions to reach equilibrium, and the affinity beads were washed extensively with wash buffer (1×PBS, 0.05% Tween 20) to remove unbound protein. The beads were then resuspended in elution buffer (1×PBS, 0.05% Tween 20, 2 μM non-biotinylated affinity ligand) and incubated at room temperature with shaking for 30 min. The kinase concentration in the eluates was measured by quantitative PCR. Each kinase was tested individually against each compound. Kds were determined using eleven serial threefold dilutions. A selectivity score, which is a quantitative measure of selectivity of a compound against a panel of enzymes, may be calculated for a compound by dividing the number of enzymes for which a compound meets a set criteria, (for example, a binding constant of 100 nM or less), by the total number of enzymes tested.

TYK2 = molecular target: T2, TYK2 (Homo sapiens, UniProt P29597); test: Competition binding assay to determine binding constants (Kd), TYK2
T2 construct: made in house; host or cells: T7 phage display or HEK-293 cells (alternatives)
From the text: as §1, §2

JAK3 = molecular target: T3, JAK3 (Homo sapiens, UniProt P52333); test: Competition binding assay to determine binding constants (Kd), JAK3
T3 construct: made in house; host or cells: T7 phage display or HEK-293 cells (alternatives)
T3 sequence (P52333 1-1124): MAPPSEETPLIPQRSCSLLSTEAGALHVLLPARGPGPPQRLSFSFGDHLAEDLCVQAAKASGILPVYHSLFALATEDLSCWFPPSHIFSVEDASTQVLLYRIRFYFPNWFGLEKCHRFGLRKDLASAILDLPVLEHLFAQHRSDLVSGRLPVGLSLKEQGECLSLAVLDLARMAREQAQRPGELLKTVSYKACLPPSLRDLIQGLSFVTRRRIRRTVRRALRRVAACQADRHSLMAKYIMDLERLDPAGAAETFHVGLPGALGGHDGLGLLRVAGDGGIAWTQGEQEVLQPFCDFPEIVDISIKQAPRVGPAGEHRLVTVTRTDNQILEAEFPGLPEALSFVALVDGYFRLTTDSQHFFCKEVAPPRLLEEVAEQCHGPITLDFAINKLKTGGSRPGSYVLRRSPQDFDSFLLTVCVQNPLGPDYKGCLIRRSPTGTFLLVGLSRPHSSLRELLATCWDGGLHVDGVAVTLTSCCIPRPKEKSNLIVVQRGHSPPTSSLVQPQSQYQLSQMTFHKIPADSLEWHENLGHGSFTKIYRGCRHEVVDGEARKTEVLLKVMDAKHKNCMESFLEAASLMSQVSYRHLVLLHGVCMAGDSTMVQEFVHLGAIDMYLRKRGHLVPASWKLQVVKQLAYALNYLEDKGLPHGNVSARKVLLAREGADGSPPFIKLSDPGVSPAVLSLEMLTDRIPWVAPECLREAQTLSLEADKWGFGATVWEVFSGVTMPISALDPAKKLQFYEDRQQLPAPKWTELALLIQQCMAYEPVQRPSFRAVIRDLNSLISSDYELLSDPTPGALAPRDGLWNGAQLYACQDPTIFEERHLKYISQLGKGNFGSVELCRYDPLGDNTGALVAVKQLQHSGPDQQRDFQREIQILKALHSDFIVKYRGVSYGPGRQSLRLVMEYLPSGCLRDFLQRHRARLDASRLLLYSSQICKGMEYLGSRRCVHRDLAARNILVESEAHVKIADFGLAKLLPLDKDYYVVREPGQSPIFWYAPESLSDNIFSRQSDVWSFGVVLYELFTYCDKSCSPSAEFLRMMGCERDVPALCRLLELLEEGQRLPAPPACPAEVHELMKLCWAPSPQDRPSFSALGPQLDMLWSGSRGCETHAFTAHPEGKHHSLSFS
From the text: as §1, §2

T2 sequence (P29597 whole entry): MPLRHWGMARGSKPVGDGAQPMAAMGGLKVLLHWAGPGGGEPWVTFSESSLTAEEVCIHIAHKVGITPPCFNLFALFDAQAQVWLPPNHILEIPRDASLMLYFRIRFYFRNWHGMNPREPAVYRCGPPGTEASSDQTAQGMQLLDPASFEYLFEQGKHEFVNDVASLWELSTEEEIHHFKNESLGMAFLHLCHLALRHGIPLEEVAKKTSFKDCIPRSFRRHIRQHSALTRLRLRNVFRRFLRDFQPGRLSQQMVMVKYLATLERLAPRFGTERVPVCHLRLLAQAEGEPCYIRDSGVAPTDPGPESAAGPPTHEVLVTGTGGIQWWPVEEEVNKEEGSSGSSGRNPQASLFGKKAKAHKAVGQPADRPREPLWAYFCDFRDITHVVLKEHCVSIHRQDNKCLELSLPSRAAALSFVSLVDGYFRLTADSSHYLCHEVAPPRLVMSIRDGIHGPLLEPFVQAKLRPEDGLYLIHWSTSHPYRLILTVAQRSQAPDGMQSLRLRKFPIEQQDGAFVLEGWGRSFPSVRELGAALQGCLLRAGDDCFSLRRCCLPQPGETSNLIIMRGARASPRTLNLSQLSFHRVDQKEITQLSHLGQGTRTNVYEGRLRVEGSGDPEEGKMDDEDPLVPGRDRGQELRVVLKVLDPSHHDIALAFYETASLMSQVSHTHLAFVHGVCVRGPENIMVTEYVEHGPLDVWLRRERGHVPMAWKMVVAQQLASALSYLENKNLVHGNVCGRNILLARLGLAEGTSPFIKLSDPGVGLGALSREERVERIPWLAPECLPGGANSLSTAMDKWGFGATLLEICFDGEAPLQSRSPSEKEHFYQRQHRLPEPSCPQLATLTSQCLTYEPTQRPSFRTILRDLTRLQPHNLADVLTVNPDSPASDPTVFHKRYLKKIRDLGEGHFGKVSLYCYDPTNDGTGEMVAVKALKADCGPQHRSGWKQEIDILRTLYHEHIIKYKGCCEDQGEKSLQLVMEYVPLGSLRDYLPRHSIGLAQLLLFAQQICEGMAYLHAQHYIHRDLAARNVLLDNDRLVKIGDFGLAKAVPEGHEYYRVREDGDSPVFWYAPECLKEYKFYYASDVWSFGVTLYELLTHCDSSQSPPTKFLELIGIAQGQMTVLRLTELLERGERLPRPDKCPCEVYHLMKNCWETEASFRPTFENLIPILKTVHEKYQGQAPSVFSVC
T1 sequence (O60674 whole entry): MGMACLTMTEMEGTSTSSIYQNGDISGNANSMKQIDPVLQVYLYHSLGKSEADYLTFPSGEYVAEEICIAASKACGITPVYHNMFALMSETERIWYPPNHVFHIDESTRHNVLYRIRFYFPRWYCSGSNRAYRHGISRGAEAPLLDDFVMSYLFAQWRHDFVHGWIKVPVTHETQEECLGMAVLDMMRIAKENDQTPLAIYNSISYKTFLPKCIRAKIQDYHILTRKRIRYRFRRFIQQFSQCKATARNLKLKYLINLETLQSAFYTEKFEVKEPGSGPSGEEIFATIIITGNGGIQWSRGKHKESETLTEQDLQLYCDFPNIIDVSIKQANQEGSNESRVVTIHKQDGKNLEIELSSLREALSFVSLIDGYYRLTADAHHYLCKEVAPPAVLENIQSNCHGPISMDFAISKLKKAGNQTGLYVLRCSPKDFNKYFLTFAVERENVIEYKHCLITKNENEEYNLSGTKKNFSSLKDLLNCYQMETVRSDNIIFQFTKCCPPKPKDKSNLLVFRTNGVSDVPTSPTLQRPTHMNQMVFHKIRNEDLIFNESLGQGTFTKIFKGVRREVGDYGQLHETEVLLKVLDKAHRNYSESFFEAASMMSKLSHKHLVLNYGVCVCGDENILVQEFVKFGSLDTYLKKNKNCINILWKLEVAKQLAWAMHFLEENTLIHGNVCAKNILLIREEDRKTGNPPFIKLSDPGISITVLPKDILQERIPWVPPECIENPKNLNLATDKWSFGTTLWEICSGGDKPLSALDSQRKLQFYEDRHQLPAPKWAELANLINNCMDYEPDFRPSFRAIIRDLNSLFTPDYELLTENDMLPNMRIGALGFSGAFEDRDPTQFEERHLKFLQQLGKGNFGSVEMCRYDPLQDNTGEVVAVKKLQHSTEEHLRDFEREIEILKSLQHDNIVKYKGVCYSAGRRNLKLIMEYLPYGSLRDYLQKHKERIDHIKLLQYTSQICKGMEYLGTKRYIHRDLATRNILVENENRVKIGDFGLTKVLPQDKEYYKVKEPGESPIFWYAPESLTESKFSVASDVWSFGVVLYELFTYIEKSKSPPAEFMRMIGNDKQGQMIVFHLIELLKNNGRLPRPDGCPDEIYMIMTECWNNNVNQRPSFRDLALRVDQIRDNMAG

| Compound | IC50 [1] | Kd (JAK2) | Kd (TYK2) | Kd (JAK3) |
| --- | --- | --- | --- | --- |
| [O-][S+](c1ccc(F)cc1)c1nc(Nc2cc[nH]n2)c2cc[nH]c2n1 (racemic) [Example 1, (R,S)-2-(4-fluorophenylsulfinyl)-N-(1H-pyrazol-3-yl)-7H-pyrrolo[2,3-d]pyrimidin-4-amine] | ≤ 100 nM | ≤ 1 nM | ≤ 10 nM | 10 to 100 nM |
| Cc1cc(Nc2nc([S+]([O-])c3ccc(F)cc3)nc3[nH]ccc23)n[nH]1 (racemic) [Example 2, (R,S)-2-(4-fluorophenylsulfinyl)-N-(5-methyl-1H-pyrazol-3-yl)-7H-pyrrolo[2,3-d]pyrimidin-4-amine] | ≤ 100 nM | ≤ 1 nM | ≤ 10 nM | ≤ 10 nM |
| Cn1ccc2c(Nc3cc[nH]n3)nc([S+]([O-])c3ccc(F)cc3)nc21 (racemic) [Example 5, (R,S)-2-(4-fluorophenylsulfinyl)-7-methyl-N-(1H-pyrazol-3-yl)-7H-pyrrolo[2,3-d]pyrimidin-4-amine] | ≤ 100 nM | ≤ 1 nM | ≤ 10 nM | 10 to 100 nM |
| Cc1cc(Nc2nc(C(O)c3ccc(F)cc3)nc3nn(C)cc23)n[nH]1 (racemic) [Example 22, (R,S)-(4-fluorophenyl)(2-methyl-4-(5-methyl-1H-pyrazol-3-ylamino)-2H-pyrazolo[3,4-d]pyrimidin-6-yl)methanol] | 100 to 500 nM | ≤ 1 nM | ≤ 10 nM | 10 to 100 nM |
| O=S(=O)(c1ccc(F)cc1)c1nc(Nc2cc[nH]n2)c2cc[nH]c2n1 [Example 3, 2-(4-fluorophenylsulfonyl)-N-(1H-pyrazol-3-yl)-7H-pyrrolo[2,3-d]pyrimidin-4-amine] | ≤ 100 nM | ≤ 1 nM | ≤ 10 nM | ≤ 10 nM |
| Cc1cc(Nc2nc(S(=O)(=O)c3ccc(F)cc3)nc3[nH]ccc23)n[nH]1 [Example 4, 2-(4-fluorophenylsulfonyl)-N-(5-methyl-1H-pyrazol-3-yl)-7H-pyrrolo[2,3-d]pyrimidin-4-amine] | ≤ 100 nM | ≤ 1 nM | ≤ 10 nM | ≤ 10 nM |
| Cn1ccc2c(Nc3cc[nH]n3)nc(S(=O)(=O)c3ccc(F)cc3)nc21 [Example 6, 2-(4-fluorophenylsulfonyl)-7-methyl-N-(1H-pyrazol-3-yl)-7H-pyrrolo[2,3-d]pyrimidin-4-amine] | ≤ 100 nM | ≤ 1 nM | ≤ 10 nM | ≤ 10 nM |
| CCn1ccc2c(Nc3cc(C)[nH]n3)nc(S(=O)(=O)c3ccc(F)cc3)nc21 [Example 7, 7-ethyl-2-(4-fluorophenylsulfonyl)-N-(5-methyl-1H-pyrazol-3-yl)-7H-pyrrolo[2,3-d]pyrimidin-4-amine] | ≤ 100 nM | ≤ 1 nM | ≤ 10 nM | ≤ 10 nM |
| CCn1ccc2c(Nc3cc[nH]n3)nc(S(=O)(=O)c3ccc(F)cc3)nc21 [Example 8, 7-ethyl-2-(4-fluorophenylsulfonyl)-N-(1H-pyrazol-3-yl)-7H-pyrrolo[2,3-d]pyrimidin-4-amine] | ≤ 100 nM | ≤ 1 nM | ≤ 10 nM | ≤ 10 nM |
| Cc1cc(Nc2nc(S(=O)(=O)c3ccc(F)cc3)nc3c2ccn3C)n[nH]1 [Example 9, 2-(4-fluorophenylsulfonyl)-7-methyl-N-(5-methyl-1H-pyrazol-3-yl)-7H-pyrrolo[2,3-d]pyrimidin-4-amine] | ≤ 100 nM | ≤ 1 nM | ≤ 10 nM | ≤ 10 nM |
| Cc1cc(Nc2nc(S(=O)(=O)c3ccc(F)cc3)nc3c2ccn3C(C)C)n[nH]1 [Example 10, 2-(4-fluorophenylsulfonyl)-7-isopropyl-N-(5-methyl-1H-pyrazol-3-yl)-7H-pyrrolo[2,3-d]pyrimidin-4-amine] | ≤ 100 nM | ≤ 1 nM | ≤ 10 nM | ≤ 10 nM |
| COCCn1ccc2c(Nc3cc(C)[nH]n3)nc(S(=O)(=O)c3ccc(F)cc3)nc21 [Example 11, 2-(4-fluorophenylsulfonyl)-7-(2-methoxyethyl)-N-(5-methyl-1H-pyrazol-3-yl)-7H-pyrrolo[2,3-d]pyrimidin-4-amine] | ≤ 100 nM | ≤ 1 nM | ≤ 10 nM | ≤ 10 nM |
| COCCn1ccc2c(Nc3cc[nH]n3)nc(S(=O)(=O)c3ccc(F)cc3)nc21 [Example 12, 2-(4-fluorophenylsulfonyl)-7-(2-methoxyethyl)-N-(1H-pyrazol-3-yl)-7H-pyrrolo[2,3-d]pyrimidin-4-amine] | ≤ 100 nM | ≤ 1 nM | ≤ 10 nM | ≤ 10 nM |
| Cc1cc(Nc2nc(S(=O)(=O)c3ccc(F)cc3)nc3c2ccn3CCO)n[nH]1 [Example 13, 2-(2-(4-fluorophenylsulfonyl)-4-(5-methyl-1H-pyrazol-3-ylamino)-7H-pyrrolo[2,3-d]pyrimidin-7-yl)ethanol] | ≤ 100 nM | ≤ 1 nM | ≤ 10 nM | ≤ 10 nM |
| CCn1ccc2c(Nc3cc(OC)[nH]n3)nc(S(=O)(=O)c3ccc(F)cc3)nc21 [Example 14, 7-ethyl-2-(4-fluorophenylsulfonyl)-N-(5-methoxy-1H-pyrazol-3-yl)-7H-pyrrolo[2,3-d]pyrimidin-4-amine] | ≤ 100 nM | ≤ 1 nM | ≤ 10 nM | ≤ 10 nM |
| Cc1cc(Nc2nc(S(=O)(=O)c3ccc(F)cc3)nc3c2ccn3CC(=O)N(C)C)n[nH]1 [Example 15] | 100 to 500 nM | ≤ 1 nM | ≤ 10 nM | ≤ 10 nM |
| CN(C)C(=O)Cn1ccc2c(Nc3cc[nH]n3)nc(S(=O)(=O)c3ccc(F)cc3)nc21 [Example 16, 2-(4-(1H-pyrazol-3-ylamino)-2-(4-fluorophenylsulfonyl)-7H-pyrrolo[2,3-d]pyrimidin-7-yl)-N,N-dimethylacetamide] | 100 to 500 nM | ≤ 1 nM | ≤ 10 nM | ≤ 10 nM |

From patent publication US20130303533A1, “AZOLOPYRIDINE AND AZOLOPYRIMIDINE COMPOUNDS AND METHODS OF USE THEREOF” (AMBIT BIOSCIENCES CORPORATION, priority 2010, published 2013)
